Assay results: the NIST ThermoML archive (doi:10.1016/j.jct.2014.01.008)
Where “and” joins values, the source holds several entries; their conditions need not be identical. Equal values may be shown once.

Experiments:
[1] = Liquid, Falling or rolling sphere viscometry
[2] = Solid-liquid equilibrium temperature; conditions: Crystal, visual observation

CCCCCCCCCCCCCCCCCCCC [eicosane]
[1]
Conditions | viscosity
325.8 K, 6700 kPa | 3.184 mPa·s and 3.193 mPa·s
325.8 K, 14400 kPa | 3.511 mPa·s and 3.528 mPa·s
325.8 K, 21300 kPa | 3.828 mPa·s
325.8 K, 22300 kPa | 3.908 mPa·s
325.8 K, 28700 kPa | 4.25 mPa·s
325.8 K, 35500 kPa | 4.642 mPa·s
429.3 K, 5500 kPa | 0.837 mPa·s
429.3 K, 7400 kPa | 0.858 mPa·s
429.3 K, 21800 kPa | 1.029 mPa·s
429.3 K, 41800 kPa | 1.262 mPa·s
429.3 K, 63000 kPa | 1.498 mPa·s and 1.523 mPa·s
429.3 K, 83000 kPa | 1.777 mPa·s
429.3 K, 103700 kPa | 2.043 mPa·s
429.3 K, 125000 kPa | 2.351 mPa·s
429.3 K, 144500 kPa | 2.631 mPa·s
429.3 K, 144700 kPa | 2.638 mPa·s
429.3 K, 167900 kPa | 2.988 mPa·s
429.3 K, 187900 kPa | 3.321 mPa·s
429.3 K, 208900 kPa | 3.685 mPa·s
429.3 K, 228600 kPa | 4.04 mPa·s
429.3 K, 243100 kPa | 4.327 mPa·s
533.8 K, 6200 kPa | 0.346 mPa·s
533.8 K, 22900 kPa | 0.425 mPa·s
533.8 K, 43300 kPa | 0.541 mPa·s
533.8 K, 43500 kPa | 0.541 mPa·s
533.8 K, 63200 kPa | 0.647 mPa·s
533.8 K, 84300 kPa | 0.75 mPa·s
533.8 K, 104400 kPa | 0.861 mPa·s
533.8 K, 125000 kPa | 0.977 mPa·s
533.8 K, 146100 kPa | 1.097 mPa·s
533.8 K, 165900 kPa | 1.199 mPa·s
533.8 K, 187300 kPa | 1.341 mPa·s
533.8 K, 208200 kPa | 1.444 mPa·s
533.8 K, 228800 kPa | 1.556 mPa·s

[2]
Conditions | Solid-liquid equilibrium temperature [K]
21600 kPa | 315.6
61500 kPa | 325.3
105500 kPa | 334.8
153800 kPa | 344.6
218800 kPa | 355.9
263800 kPa | 364.3

CCCCCCCCCCCCCCCC [hexadecane]
[1]
Conditions | viscosity
303.9 K, 3300 kPa | 2.826 mPa·s
303.9 K, 7300 kPa | 2.959 mPa·s
303.9 K, 12900 kPa | 3.184 mPa·s
303.9 K, 19000 kPa | 3.454 mPa·s
303.9 K, 26800 kPa | 3.793 mPa·s
303.9 K, 33600 kPa | 4.107 mPa·s
325.7 K, 8100 kPa | 1.943 mPa·s
325.7 K, 8300 kPa | 1.956 mPa·s
325.7 K, 21500 kPa | 2.263 mPa·s
325.7 K, 35600 kPa | 2.675 mPa·s
325.7 K, 49300 kPa | 3.067 mPa·s
325.7 K, 63600 kPa | 3.55 mPa·s
325.7 K, 77500 kPa | 4.056 mPa·s
325.7 K, 91800 kPa | 4.625 mPa·s
325.7 K, 104100 kPa | 5.179 mPa·s
325.7 K, 119200 kPa | 5.865 mPa·s
325.7 K, 122700 kPa | 6.07 mPa·s
429.1 K, 12800 kPa | 0.582 mPa·s and 0.586 mPa·s
429.1 K, 22200 kPa | 0.649 mPa·s
429.1 K, 22700 kPa | 0.65 mPa·s
429.1 K, 35800 kPa | 0.742 mPa·s
429.1 K, 70500 kPa | 1.01 mPa·s
429.1 K, 91600 kPa | 1.181 mPa·s
429.1 K, 118800 kPa | 1.405 mPa·s
429.1 K, 140300 kPa | 1.594 mPa·s
429.1 K, 167800 kPa | 1.847 mPa·s
429.1 K, 188000 kPa | 2.046 mPa·s
429.1 K, 222900 kPa | 2.459 mPa·s
533.7 K, 14100 kPa | 0.272 mPa·s
533.7 K, 14300 kPa | 0.276 mPa·s
533.7 K, 29900 kPa | 0.341 mPa·s
533.7 K, 30100 kPa | 0.342 mPa·s
533.7 K, 50400 kPa | 0.43 mPa·s
533.7 K, 50500 kPa | 0.433 mPa·s
533.7 K, 77100 kPa | 0.534 mPa·s
533.7 K, 104600 kPa | 0.642 mPa·s
533.7 K, 125000 kPa | 0.721 mPa·s
533.7 K, 152800 kPa | 0.829 mPa·s
533.7 K, 188400 kPa | 0.983 mPa·s
533.7 K, 210000 kPa | 1.077 mPa·s
533.7 K, 226600 kPa | 1.154 mPa·s

[2]
Conditions | Solid-liquid equilibrium temperature [K]
54300 kPa | 303.6
106300 kPa | 314.5
158900 kPa | 325
210600 kPa | 333.9
267700 kPa | 344.4

CCCCCCCCCCCCCCCCCC [octadecane]
[1]
Conditions | viscosity
325.6 K, 9800 kPa | 2.598 mPa·s
325.6 K, 16400 kPa | 2.778 mPa·s
325.6 K, 29600 kPa | 3.247 mPa·s
325.6 K, 37200 kPa | 3.568 mPa·s
325.6 K, 51000 kPa | 4.157 mPa·s
325.6 K, 60500 kPa | 4.578 mPa·s
325.6 K, 69000 kPa | 4.98 mPa·s
325.6 K, 70800 kPa | 5.095 mPa·s
428.9 K, 6800 kPa | 0.685 mPa·s
428.9 K, 21900 kPa | 0.831 mPa·s
428.9 K, 42100 kPa | 1.023 mPa·s
428.9 K, 63400 kPa | 1.232 mPa·s
428.9 K, 84300 kPa | 1.446 mPa·s
428.9 K, 104900 kPa | 1.649 mPa·s
428.9 K, 125500 kPa | 1.878 mPa·s
428.9 K, 147800 kPa | 2.125 mPa·s
428.9 K, 168000 kPa | 2.392 mPa·s
428.9 K, 188600 kPa | 2.65 mPa·s
428.9 K, 209600 kPa | 2.928 mPa·s
428.9 K, 230000 kPa | 3.207 mPa·s
428.9 K, 243100 kPa | 3.396 mPa·s
533.9 K, 9200 kPa | 0.303 mPa·s
533.9 K, 9500 kPa | 0.305 mPa·s
533.9 K, 15200 kPa | 0.336 mPa·s
533.9 K, 22500 kPa | 0.38 mPa·s
533.9 K, 44600 kPa | 0.497 mPa·s
533.9 K, 64000 kPa | 0.579 mPa·s
533.9 K, 85700 kPa | 0.686 mPa·s
533.9 K, 105900 kPa | 0.784 mPa·s
533.9 K, 126600 kPa | 0.88 mPa·s
533.9 K, 147600 kPa | 0.975 mPa·s and 0.985 mPa·s
533.9 K, 167700 kPa | 1.077 mPa·s
533.9 K, 188600 kPa | 1.201 mPa·s
533.9 K, 209100 kPa | 1.313 mPa·s
533.9 K, 229300 kPa | 1.411 mPa·s
533.9 K, 242900 kPa | 1.491 mPa·s

[2]
Conditions | Solid-liquid equilibrium temperature [K]
59900 kPa | 315.2
102800 kPa | 324.6
151000 kPa | 334.8
205400 kPa | 344.7
256400 kPa | 354.2
